Values quoted from earlier work, collected in patent US7109171B2, “Methods for treating FSH related conditions with GnRH antagonists” (Praecis Pharmaceuticals Inc., priority 2000, dated 2006).
Square brackets hold non-standard residues; d marks the D form. Peptide text beside a SMILES is read from it. dPhe(4-Cl) = N[C@H](Cc1ccc(Cl)cc1)C(=O)O; d2Nal = N[C@H](Cc1ccc2ccccc2c1)C(=O)O; dCit = NC(=O)NCCC[C@@H](N)C(=O)O; d3Pal = N[C@H](Cc1cccnc1)C(=O)O

Tests used:
LH = conditions: in vivo
FSH = conditions: single bolus injection

Compound	effect on LH levels (LH)	effect on FSH levels (FSH)
CC(=O)N[C@H](Cc1ccc2ccccc2c1)C(=O)N[C@H](Cc1ccc(Cl)cc1)C(=O)N[C@H](Cc1cccnc1)C(=O)N[C@@H](CO)C(=O)N[C@@H](Cc1ccc(O)cc1)C(=O)N[C@H](CCCNC(N)=O)C(=O)N[C@@H](CC(C)C)C(=O)N[C@@H](CCCNC(=N)N)C(=O)N1CCC[C@H]1C(=O)N[C@H](C)C(N)=O [Cetrorelix] (Ac-[d2Nal][dPhe(4-Cl)][d3Pal]SY[dCit]LRP[dA]-NH2)	reduced	did not significantly affect
Nal-Glu	reduced	did not significantly affect
